These results are taken from patent publication US20050171012A1, “Preventives/remedies for bone/joint diseases” (TAKEDA CHEMICAL INDUSTRIES, LTD., priority 2001, published 2005).

Assay [1] has as its system Normal human articular chondrocytes of knee (NHAC-kn). The assay is described as follows: Induction of alkaline phosphatase activity in normal human articular chondrocytes of knee by T3. The format is cell-based. As to conditions: NHAC-kn cells, 0.05-50 nM T3, 6 days; FIG. 2. As to the method: Normal human articular chondrocytes of knee (NHAC-kn; Clonetics) were plated on gelatin-coated 24-well plates (Iwaki) at 2×10^5 cells/well and cultured in DMEM high glucose medium (Gibco) containing 1 μg/ml insulin, 1 μg/ml transferin, 1 ng/ml selenious acid (these components were contained in ITS; BD Bioscience), 1 mg/ml BSA, 50 μg/ml ascorbic acid phosphate magnesium salt n-hydrate (Wako) and 5 mM β-glycerophosphate in a CO2 incubator under 5% CO2 at 37° C. with addition of 0.05-50 nM T3 (triiodothyronine) (Sigma) if necessary. After 6 days, the culture broth was removed from cells and 200 μl of 10 mM Tris-HCl (pH 7.4) containing 0.1% Triton X-100 was added to each well. Then, cells were shaken at 4° C. for 1 hour on a horizontal shaker to thereby extract proteins from the cell layer. The alkaline phosphatase (AP) activity of the extract was determined from the yield of p-nitrophenol using p-nitrophenylphosphate as a substrate (Sigma). The protein content in the extract was measured with BCA protein assay reagent (Pierce) to thereby calculate the AP activity per a specific amount of protein.

Assay [2] shares this test system. The assay is described as follows: Induction of MMP13 gene expression in normal human articular chondrocytes of knee by T3. The format is cell-based. As to conditions: NHAC-kn cells, 0.1-10 nM T3, 6 days; FIG. 3. As to the method:
Normal human articular chondrocytes of knee (NHAC-kn; Clonetics) were plated on gelatin-coated 96-well plates (Iwaki) at 2×10^5 cells/well and cultured in DMEM high glucose medium (Gibco) containing 1 μg/ml insulin, 1 μg/ml transferin, 1 ng/ml selenious acid (these components were contained in ITS; BD Bioscience) and 1 mg/ml BSA, and supplemented with 5 mM β-glycerophosphate (Sigma), 50 μg/ml ascorbic acid phosphate magnesium salt n-hydrate (Wako) and, if necessary, 0.1-10 nM T3 (triiodothyronine) (Sigma), in a CO2 incubator under 5% CO2 at 37° C. After 6 days, RNA was extracted from cells using RNeasy (Qiagen) according to the attached protocol. Using the total RNA as a template, cDNA was synthesized from random primers with TaqManreverse transcription reagent (Applied Biosystems). Subsequently, 2 μl of the reaction solution containing cDNA was mixed with a 2 μl reaction solution containing 0.34 μM of two primers (SEQ ID NO: 15 and SEQ ID NO: 16) and 1×PCR Master Mix (Applied Biosystems) and subjected to PCR. […]
The PCR was performed with ABI7700 sequence detector (Applied Biosystems). The number of copies of MMP13 cDNA was measured by real-time monitoring the amount of the PCR product. The number of copies of β-actin cDNA was also measured in the same manner using TaqMan β-actin control reagent (Applied Biosystems) and used as internal standard. […]

In a further assay the target is T1, human DIO2 (Homo sapiens, UniProt Q92813).
T1 construct: expressed in transfected cells; host or cells: COS-7 cells, transiently transfected with pTB2249 (pcDNA3.1 backbone), sonicated to disrupted cells
T1 sequence (Q92813 1-273): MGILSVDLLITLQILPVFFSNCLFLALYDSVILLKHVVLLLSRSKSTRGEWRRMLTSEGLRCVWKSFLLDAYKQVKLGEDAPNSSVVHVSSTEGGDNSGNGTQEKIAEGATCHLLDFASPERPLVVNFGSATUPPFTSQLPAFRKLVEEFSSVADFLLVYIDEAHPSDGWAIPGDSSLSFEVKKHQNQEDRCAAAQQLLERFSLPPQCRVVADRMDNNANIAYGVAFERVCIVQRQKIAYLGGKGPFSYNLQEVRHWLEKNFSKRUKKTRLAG
The assay is described as follows: Thyroid hormone deiodinase activity (T3 production from T4, T3 RIA) in disrupted COS-7 cells with DIO2 expression plasmid pTB2249. As to conditions: FIG. 4c. It is filed as biochemical. The text has this: (§1) Using human thyroid-derived cDNA (Marathon Ready cDNA; Clontech) as a template, the following sequences were amplified by PCR: the amino acid coding sequence (cds) of human DIO1 (type 1 thyroid hormone deiodinase) using primer 1 (SEQ ID NO: 17) and primer 2 (SEQ ID NO: 18); DIO1 selenocystein insertion sequence (SECIS) using primer 3 (SEQ ID NO: 19) and primer 4 (SEQ ID NO: 20); human DIO2 cds using primer 5 (SEQ ID NO: 21) and primer 6 (SEQ ID NO: 22); and DIO2 SECIS (Buettner et al., 1998) using primer 7 (SEQ ID NO: 23) and primer 8 (SEQ ID NO: 24).
(§2) The resultant DNAs for human DIO1 cds and human DIO2 cds were inserted into pcDNA3.1 (Invitrogen) individually to thereby obtain plasmids pTB2240 and pTB2242. Further, the resultant DNAs for human DIO1 SECIS and human DIO2 SECIS were inserted into pCR2.1 (Invitrogen) individually to thereby obtain plasmids pTB2241 and pTB2244. DIO1 SECIS and DIO2 SECIS were cut out with restriction enzymes Sca I and Not I (Takara Shuzo) and introduced into DIO1 or DIO2 coding sequence-inserted plasmid pretreated with restriction enzymes Eco RV and Not I (Takara Shuzo) to thereby construct DIO1 expression plasmid pTB2248 and DIO2 expression plasmid pTB2249.
(§3) COS-7 cells (3×10^5) were plated in 6 cm petri dishes. […]

Assay [3] addresses human DIO1 (type 1 thyroid hormone deiodinase) (Homo sapiens, UniProt P49895). The conditions noted are these: 1 mM PTU, T4 concentration 5 μM, 37° C. one hour; FIG. 4b.
Excerpt: as §1, §2, §3

Each structure is given as a SMILES string.

human DIO1 (type 1 thyroid hormone deiodinase), sequence (P49895 whole entry): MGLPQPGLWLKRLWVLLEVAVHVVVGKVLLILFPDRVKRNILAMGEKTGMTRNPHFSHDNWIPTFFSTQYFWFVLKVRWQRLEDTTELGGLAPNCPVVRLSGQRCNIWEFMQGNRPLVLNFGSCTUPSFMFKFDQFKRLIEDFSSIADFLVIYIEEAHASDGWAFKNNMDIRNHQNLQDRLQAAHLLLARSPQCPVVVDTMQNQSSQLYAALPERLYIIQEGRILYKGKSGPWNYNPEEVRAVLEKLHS

Consider `N[C@@H](Cc1cc(I)c(Oc2ccc(O)c(I)c2)c(I)c1)C(=O)O` [T3, triiodothyronine], for which, in assay [1], the “alkaline phosphatase (AP) activity of cell layer extract per amount of protein” value is on record as “induced in a T3 concentration-dependent manner”. Also, in assay [2], the “mRNA of MMP13 (number of copies of MMP13 cDNA normalized with β-actin)” value was “induced in a T3 concentration-dependent manner”.
Turning to `CCCc1cc(=O)[nH]c(=S)[nH]1` [PTU, propylthiouracil], the “influence on DIO2 activity of pTB2249 (T3 production)” value at human DIO2 (1 mM PTU, 37° C. one hour) is reported as “influenced little”. Moreover, the “inhibition of DIO1 activity (T3 production)” value in assay [3] was “completely inhibited”.
For the compound `N[C@@H](Cc1ccc(Oc2cc(I)c(O)c(I)c2)c(I)c1)C(=O)O` [rT3, riverse triiodothyronine], at human DIO2 (rT3 5 μM, competition with T4, 37° C. one hour), the “inhibition of DIO2 activity of pTB2249 (T3 production)” value was “partially inhibited”.
